Legend:
[1] = Photolysis of JCF 1 in MeOH under 368.8 nm irradiation, followed by mass spectrometry; assay type: physicochemical; conditions: 100 μM in MeOH; 368.8 nm±5 nm; approximately 12.5 mW/cm^2
Description: The photolysis of JCF 1 is carried out under controlled conditions in order to quantitatively detect the release of forskolin carbamate 10 as a function of the amount of light absorbed: 0.16 ml of a 100 μM solution of JCF 1 in MeOH is added to a quartz glass cuvette (width: 4 mm; depth (optical path): 10 mm->fill level 4 mm). The “Intensilight” light source (excitation lamp of a Nikon TI Eclipse fluorescence microscope) is used as the excitation source, the light of which is guided through a gel light guide (active diameter: 4 mm) and a narrowband bandpass filter (368.8 nm±5 nm) onto the liquid column in the cuvette. […]
The irradiated samples are then examined using mass spectrometry (mass spectrometer: MSQ Plus from ThermoScientific; ionization: ESI-interface with a cone voltage of 50 V, eluent: methanol, water, glacial acetic acid, /50, 50, 0.02/vol, vol, vol; flow rate 0.2 ml/min; direct injections of 20 μl of the respective irradiated samples via a Rheodyne injection valve (7725i)). The mass trace m/z 511 and the mass range m/z 807-811 are recorded. The integrals of the peaks of the chromatogram of the mass trace m/z 511 (see FIG. 10) are evaluated. With an exposure time of 320 seconds, no more signals can be detected in the mass range m/z 807-811 (starting compound), and therefore a complete conversion can be assumed after this time under the above-described conditions.

[2] = system: peripheral membrane adenylyl cyclases; assay: Validation on eukaryotic cell line expressing CNG channel and GCaMP3.0: Ca2+-dependent fluorescence as readout of intracellular cAMP increase after UV exposure; assay type: cell-based; conditions: 100 μM IBMX
From the text: The substance JCF 1 described according to embodiments of the invention was validated on eukaryotic cell cultures in which the increase in the intracellular cAMP concentration, which results from the binding of the biologically active forskolin carbamate 10 (FIG. 9) to peripheral membrane adenylyl cyclases which are endogenously present in the cells, using a fluorescence-based sensitive detection process.^14 In this regard, a cell line was used in which a cyclic-nucleotide-gated (CNG) ion channel is constitutively expressed. These channels are typically expressed in olfactory sensory neurons of the olfactory epithelium and open when the intracellular cAMP concentration increases. […] The inflow of Ca^2+ can be detected with Ca^2+-sensitive dyes or genetically encoded Ca^2+ indicators, such as GCaMP sensors, in a fluorescence reader or with a fluorescence microscope. […] The Ca^2+-dependent change in the fluorescence change can be detected and quantified with the aforementioned processes.
Cells of the cell line described were seeded in 96-well multi-well plates (MWP) and increased to a density of approximately 25,000. […] The basal fluorescence in the wells of 96-well MWP was then measured with a fluorescence reader. […] The basal fluorescence in the wells was then measured again before the entire 96-well MWP plate was exposed to light using a UV lamp device (FIG. 11, FIG. 12). […]

exposure time after which no more signals of starting compound (m/z 807-811) can be detected; complete conversion assumed [1]: 320 s
SMILES: C=C[C@@]1(C)CC(=O)[C@]2(O)[C@@]3(C)[C@@H](O)CCC(C)(C)[C@@H]3[C@H](OC(=O)NCCN(C)C(=O)OCc3cc(=O)oc4cc(O)c(Br)cc34)[C@H](OC(C)=O)[C@@]2(C)O1 [JCF 1, (3R,4aR,5S,6S,6aS,10S,10aR,10bS)-6-(((2-((((6-bromo-7-hydroxy-2-oxo-2H-chromen-4-yl)methoxy)carbonyl)(methyl)amino)ethyl)carbamoyl)oxy)-10,10b-dihydroxy-3,4a,7,7,10a-pentamethyl-1-oxo-3-vinyldodecahydro-1H-benzo[f]chromen-5-yl acetate]
change in fluorescence relative to the values achieved by adding non-caged NKH 477 ([2]; 10 μM and 30 μM, after UV exposure): approximately 50% | Ca2+-dependent fluorescence emission after UV exposure (release of forskolin carbamate 10) ([2]; cells loaded with 10 μM and 30 μM for 30 min in the dark, UV lamp exposure): significant increase
